Assay results taken from patent publication US6387389B1 (priority 1996, dated 2002).

Assays:
[1] = test system: food-maintained and cocaine-maintained responding in rhesus monkeys; conditions: comparison value for the shorter-acting drug; cited from earlier work
[2] = test system: food-maintained and cocaine-maintained responding in rhesus monkeys; conditions: rhesus monkey, in vivo
[3] = test system: dopamine (DA) and serotonin (5-HT) in nucleus accumbens dialysate; assay: In vivo microdialysis with methamphetamine challenge; parameters: species or system male Sprague-Dawley rats; conditions: 0.7 ml/kg im
[4] = molecular target: T1, reuptake of tritiated serotonin ([3H]5HT), rat whole brain minus cerebellum synaptosomes (Rattus norvegicus, UniProt P31652); format: biochemical
T1 construct: homogenization of rat caudate (DA) or whole brain minus cerebellum (5HT); from tissue; host or cells: rat whole brain minus cerebellum, synaptosomes
T1 sequence (P31652 whole entry): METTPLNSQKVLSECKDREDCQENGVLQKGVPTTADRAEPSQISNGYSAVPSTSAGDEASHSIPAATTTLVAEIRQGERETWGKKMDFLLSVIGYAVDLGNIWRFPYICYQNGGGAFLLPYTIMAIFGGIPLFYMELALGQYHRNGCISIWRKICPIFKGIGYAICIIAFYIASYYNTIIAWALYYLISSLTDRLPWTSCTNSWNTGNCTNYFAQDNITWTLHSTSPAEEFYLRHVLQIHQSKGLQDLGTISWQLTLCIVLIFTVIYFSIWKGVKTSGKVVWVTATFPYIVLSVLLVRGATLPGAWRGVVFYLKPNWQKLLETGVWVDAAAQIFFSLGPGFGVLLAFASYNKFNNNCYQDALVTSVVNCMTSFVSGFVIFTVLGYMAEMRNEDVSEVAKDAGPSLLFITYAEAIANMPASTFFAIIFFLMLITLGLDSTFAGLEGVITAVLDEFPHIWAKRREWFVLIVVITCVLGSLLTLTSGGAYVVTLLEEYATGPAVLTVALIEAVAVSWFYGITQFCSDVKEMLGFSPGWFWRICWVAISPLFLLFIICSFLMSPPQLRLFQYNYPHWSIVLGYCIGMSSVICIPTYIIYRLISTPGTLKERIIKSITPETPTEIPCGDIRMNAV

[5] = test system: dopamine transporter versus serotonin and norepinephrine transporters; conditions: Rothman et al. (1993); cited from earlier work
[6] = methamphetamine 1 mg/kg iv four days later, FIG. 4 (percent of baseline)

SMILES: Fc1ccc(C(OCCN2CCN(CCCc3ccccc3)CC2)c2ccc(F)cc2)cc1 [GBR 12909, 1-[2-[bis(4-fluorophenyl)methoxy]ethyl]-4-[3-phenylpropyl]piperazine]
- duration of effect on cocaine-maintained responding [1]: 4 to 6 h

SMILES: CCCCCCCCCC(=O)OC(CCN1CCN(CCOC(c2ccc(F)cc2)c2ccc(F)cc2)CC1)c1ccccc1 (racemic) [compound 5*, (±)1-[2-Bis-(p-fluorophenyl)methoxy]ethyl]-4-(3-hyroxy-3-phenylpropyl)piperazine decanoate ester]
- duration of sustained and selective effect on cocaine-maintained responding [2]: almost thirty days
- increase of basal levels of dopamine (DA) ([3]; four days after injection, FIG. 3): two-fold
- ability of methamphetamine to increase dopamine levels ([3]; methamphetamine 1 mg/kg iv four days later, FIG. 3 (picogram/fraction)): essentially eliminated
- ability of methamphetamine to increase dopamine [3, 6]: blunted
- ability of methamphetamine to increase serotonin (5-HT) [3, 6]: blunted

SMILES: NCCc1c[nH]c2ccc(O)cc12 [[^3H]5HT]
- Km [4]: 0.0174 ± 0.0008 µM

SMILES: c1ccc(CCCN2CCCN(CCOC(c3ccccc3)c3ccccc3)CC2)cc1 [LR1111, 1-[2-(diphenyl-methoxy)-ethyl]-4-(3-phenylpropyl)homopiperazine]
- selectivity for the dopamine transporter over the serotonin and norepinephrine transporters [5]: over 4,000 fold
